Results on one compound are retold here after patent publication US20240238218A1, “[…] A […] ACTIVE COMPOUND AND METHOD OF PREPARATION THEREOF” (GW Research Limited, priority 2021, published 2024).

One data set deals with RjOrl: Swiss mice. Nature of the data set: Mouse 6 Hz (44 mA) psychomotor seizure test. In kind it is in vivo. Particulars: for Forelimb clonus (mean ± s.e.m.): score 0-2. An excerpt: The 6 Hz Psychomotor Test, which detects anticonvulsant activity, follows that described by Brown et al. (J. Pharmacol. Exp. Ther. 107, 273-283, 1953).
Male RjOrl: Swiss mice, 5 weeks old, weighing 28-38 g at the beginning of the experiment. Animals were acclimatized to the test facility for at least 5 days after delivery and randomly housed in groups of 3-4 in macrolon cages on wood litter with free access to food and water.
Before transcorneal stimulation, a drop of tetracaine solution (2%) was applied on each eye of the mouse for local anesthesia. Between 1-10 minutes later, at the pre-treatment time specified for the test compound, the mice were administered a rectangular current (44 mA, rectangular pulse: 0.2 ms pulse width, 3 s duration, 6 Hz) via corneal electrodes connected to a constant current shock generator.
The number of seizures as reflected by forelimb clonus were recorded immediately after current administration. Forelimb clonus was scored as absent (0=no forelimb clonus), mild (1=clonus with one forelimb) and strong (2=clonus with both forelimbs).
[…] The experimenters were blinded to the treatment. The cages were randomly assigned to a treatment code, each designating one treatment group.
Compound I was administered intraperitoneally at 20 and 50 mg/kg, 30 minutes before the test, and at 100 and 200 mg/kg, 60 minutes before the test and were compared with the vehicle control (5% ethanol, 10% […], 85% physiological saline).
Valproate (300 mg/kg i.p.), administered 30 minutes before the test, was used as reference substance and was compared with the vehicle control (5% ethanol, 10% Kolliphor HS15, 85% physiological saline).
Test compound: Compound I dissolved in 5% ethanol, 10% Kolliphor HS15, 85% physiological saline.
Vehicle control: 5% ethanol, 10% Kolliphor HS15, 85% physiological saline.
Reference: Valproate (300 mg/kg), dissolved in 5% ethanol, 10% Kolliphor HS15, 85% physiological saline.
Data were assumed to be non-normally distributed based on validation data, therefore non-parametric tests were utilized. Quantitative data (scores) with the test substance were analyzed by comparing treated groups with the corresponding vehicle control using Kruskal-Wallis test with Dunn's multiple comparisons test when the Kruskal-Wallis Test was significant. Quantitative data with the reference substance was analysed using Mann-Whitney U test.

Data set [1] concerns mouse model of generalised seizure (tonic hind limb extensor convulsions). Put plainly: mini-MEST (maximal electroshock seizure threshold, minimal sample sizes) test in the mouse. Conditions: 50 mg/kg i.p., 30 min post dose. The method, then: The maximal electroshock seizure threshold (MEST) test is widely utilized preclinically to evaluate pro- or anti-convulsant properties of test compounds (Loscher et al., 1991).
In the MEST test the ability of a drug to alter the seizure threshold current required to induce hind limb tonic extensor convulsions is measured according to an “up and down” method of shock titration (Kimball et al., 1957). An increase in seizure threshold is indicative of anti-convulsant effect.
The ability of a test compound to alter the stimulus intensity, expressed as current (mA), required to induce the presence of tonic hind limb extensor convulsions, is assessed in the MEST.
All animals were weighed at the beginning of the study and randomly assigned to treatment groups based on a mean distribution of body weight across groups.
The first animal within a treatment group was given a shock at the expected or estimated CC50 current. For subsequent animals, the current was lowered or raised depending on the convulsions outcome from the preceding animal in log scale intervals.
Data generated from each treatment group were used to calculate the CC50±SEM values for the treatment group.
Vehicle: (5% ethanol, 10% solutol in 85% Saline) was prepared as follows: 1 mL of ethanol, 2 mL of solutol were warmed to 60° C., in 17 mL of saline (1:2:17).
The test compound, described herein as Compound I, is as shown as Formula I. Test compound was administered at 50 mg/kg (i.p.) in a 1:2:17 ethanol:solutol:0.9% saline formulation.
The data for each treatment group were recorded as the number of +'s and 0's at each current level employed and this information is then used to calculate the CC50 value (current required for 50% of the animals to show seizure behaviour)±standard error.
Test compound effects were also calculated as percentage change in CC50 from the vehicle control group.
Significant difference between drug-treated animals and controls were assessed according to Litchfield and Wilcoxon (1949).

Where [2] appears, read: 20 mg/kg i.p., 30 minutes before the test.
[3] abbreviates: 50 mg/kg i.p., 30 minutes before the test.
Where [4] appears, read: 100 mg/kg i.p., 60 minutes before the test.
[5] abbreviates: 200 mg/kg i.p., 60 minutes before the test.

`C=C(C)[C@@H]1CC(O)C(C)=C[C@H]1c1c(O)cc(Br)cc1O` (single isomer, unassigned) [Compound I]: the “Forelimb clonus, Compared with Vehicle B (i.p.) %” value with RjOrl: Swiss mice (setting [2]) was 0%; with RjOrl: Swiss mice (setting [3]) it was −38%; with RjOrl: Swiss mice (setting [4]), −88%; in the data set on RjOrl: Swiss mice (setting [5]) it was −63%. Further, the “Forelimb clonus (mean ± s.e.m.)” value stood at 0.8 ± 0.1 with RjOrl: Swiss mice (setting [2]), 0.5 ± 0.1 in the data set on RjOrl: Swiss mice (setting [3]), 0.1 ± 0.1 with RjOrl: Swiss mice (setting [4]) and 0.3 ± 0.1 in the data set on RjOrl: Swiss mice (setting [5]). In addition, the “Slight sedation (mice affected)” value in the data set on RjOrl: Swiss mice (100 mg/kg i.p.) is recorded as “Two mice out of the 13”. For the same compound, the “Tremor (mice affected)” value with RjOrl: Swiss mice (200 mg/kg i.p.) is “Two mice out of the 14”. In addition, the “Sedation (mice affected)” value in the data set on RjOrl: Swiss mice (200 mg/kg i.p., 14 mice) was “all mice showed slight (12 mice) to moderate (2 mice) sedation”. In addition, in data set [1], the “CC50 +/− SEM” value is reported as greater than 114 mA. Besides, in data set [1] (6 animals), the “tonic hindlimb convulsions in treatment group” value is given as “did not have any convulsions”.
